The values that follow come from patent US20230219906A1, “MACROCYCLIC-2-AMINO-3-FLUORO-BUT-3-ENAMIDES AS INHIBITORS OF MCL-1” (Janssen Pharmaceutica NV, priority 2020, published 2023).

Structures are written as SMILES. Like-named read-outs stand apart in the source and are kept apart here.

The target in assay [1] is Myeloid Cell Leukemia 1(Mcl-1) (Homo sapiens, UniProt Q07820). The assay can be described thus: Terbium labeled Mcl-1 HTRF binding assay with Cy5-labeled BIM BH3 peptide. To be noted: displacement of Cy5 Bim BH3 peptide; Ki=IC50/(1+[L]/Kd), [L]=8 nM, Kd=10 nM; 60 minutes at room temperature; read-out: Tb-MCL1 Ki. As for the experimental part: Terbium labeled Myeloid Cell Leukemia 1(Mcl-1) homogeneous time-resolved fluorescence (HTRF) binding assay utilizing the BIM BH3 peptide (H2N—(C/Cy5Mal) WIAQELRRIGDEFN-OH) as the binding partner for Mcl-1.
This assay evaluated inhibition of the BH3 domain: Mcl-1 interaction by measuring the displacement of Cy5-labeled BIM BH3 peptide (H2N—(C/Cy5Mal) WIAQELRRIGDEFN-OH) in the HTRF assay format.
The following assay and stock buffers were prepared for use in the assay: (a) Stock buffer: 10 mM Tris-HCl, pH=7.5+150 mM NaCl, filtered, sterilized, and stored at 4° C.; and (b) 1X assay buffer, where the following ingredients were added fresh to stock buffer: 2 mM dithiothreitol (DTT), 0.0025% Tween-20, 0.1 mg/mL bovine serum albumin (BSA). The 1X Tb-Mcl-1+Cy5 Bim peptide solution was prepared by diluting the protein stock solution using the 1X assay buffer (b) to 25 pM Tb-Mcl-1 and 8 nM Cy5 Bim peptide.
Using the Acoustic ECHO, 100 nL of 100x test compound(s) were dispensed into individual wells of a white 384-well Perkin Elmer Proxiplate, for a final compound concentration of 1× and final DMSO concentration of 1%. Inhibitor control and neutral control (NC, 100 nL of 100% DMSO) were stamped into columns 23 and 24 of assay plate, respectively. Into each well of the plate was then dispensed 10 μL of the 1X Tb-Mcl-1+Cy5 Bim peptide solution. The plate was centrifuged with a cover plate at 1000 rpm for 1 minute, then incubated for 60 minutes at room temperature with plates covered.
The TR-FRET signal was read on an BMG PHERAStar FSX MicroPlate Reader at room temperature using the HTRF optic module (HTRF: excitation: 337 nm, light source: laser, emission A: 665 nm, emission B: 620 nm, integration start: 60 μs, integration time: […]).
The BMG PHERAStar FSX MicroPlate Reader was used to measure fluorescence intensity at two emission wavelengths—665 nm and 620 nm—and report relative fluorescence units (RFU) for both emissions, as well as a ratio of the emissions (665 nm/620 nm)*10,000. The RFU values were normalized to percent inhibition as follows:
% inhibition=(((NC−IC)−(compound−IC))/(NC−IC))*100
where IC (inhibitor control, low signal)= mean signal of 1X Tb-MCl-1+Cy5 Bim peptide+inhibitor control or 100% inhibition of Mcl-1; NC (neutral control, high signal)= mean signal 1X Tb-MCl-1+Cy5 Bim peptide with DMSO only or 0% inhibition An 11-point dose response curve was generated to determine IC50 values (using GenData) based on the following equation:
Y=Bottom+(Top−Bottom)/(1+10∧((log IC50−X)*HillSlope))
where Y=% inhibition in the presence of X inhibitor concentration; Top=100% inhibition derived from the IC (mean signal of Mcl-1+inhibitor control); Bottom=0% inhibition derived from the NC (mean signal of Mcl-1+DMSO); Hillslope=Hill coefficient; and IC50=concentration of compound with 50% inhibition in relation to top/neutral control (NC).
In this assay [L]=8 nM and Kd=10 nM
A general note: Time-resolved FRET reads energy transfer from a long-lived donor to a nearby acceptor.

Assay [2] relates to MOLP-8 human multiple myeloma cell line. The assay can be described thus: Caspase-Glo 3/7 apoptosis induction assay in MOLP-8 cells. Type of assay: cell-based. Conditions: caspase-3/7 activity, 2 hours at 37° C., averaged over all runs on all batches, read-out: MOLP8 AC50. An excerpt: MCL-1 is a regulator of apoptosis and is highly over-expressed in tumor cells that escape cell death. The assay evaluates the cellular potency of small-molecule compounds targeting regulators of the apoptosis pathway, primarily MCL-1, Bfl-1, Bcl-2, and other proteins of the Bcl-2 family. Protein-protein inhibitors disrupting the interaction of anti-apoptotic regulators with BH3-domain proteins initiate apoptosis.
The Caspase-Glo® 3/7 Assay is a luminescent assay that measures caspase-3 and −7 activities in purified enzyme preparations or cultures of adherent or suspension cells. The assay provides a proluminescent caspase-3/7 substrate, which contains the tetrapeptide sequence DEVD. This substrate is cleaved to release aminoluciferin, a substrate of luciferase used in the production of light. Addition of the single Caspase-Glo® 3/7 Reagent in an “add-mix-measure” format results in cell lysis, followed by caspase cleavage of the substrate and generation of a “glow-type” luminescent signal.
This assay uses the MOLP-8 human multiple myeloma cell line, which is sensitive to MCL-1 inhibition.
Cell cultures were maintained between 0.2 and 2.0×10^6 cells/mL. The cells were harvested by collection in 50 mL conical tubes. The cells were then pelleted at 500 g for 5 mins before removing supernatant and resuspension in fresh pre-warmed culture medium. The cells were counted and diluted as needed.
The assay reagent was prepared by transferring the buffer solution to the substrate vial and mixing. The solution may be stored for up to 1 week at 4° C. with negligible loss of signal.
Compounds were delivered in assay-ready plates (Proxiplate) and stored at −20° C. Assays always include 1 reference compound plate containing reference compounds. The plates were spotted with 40 nL of compounds (0.5% DMSO final in cells; serial dilution; […] highest conc. 1/3 dilution, 10 doses, duplicates). The compounds were used at room temperature and 4 μL of pre-warmed media was added to all wells except column 2 and 23. The negative control was prepared by adding 1% DMSO in media. The positive control was prepared by adding the appropriate positive control compound in final concentration of […] in media. The plate was prepared by adding 4 μL negative control to column 23, 4 μL positive control to column 2 and 4 μL cell suspension to all wells in the plate. The plate with cells was then incubated at 37° C. for 2 hours. The assay signal reagent is the Caspase-Glo solution described above, and 8 μL was added to all wells. The plates were then sealed and measured after 30 minutes.
The activity of a test compound was calculated as percent change in apoptosis induction as follows:
% Effect (AC50)=100−(sample-LC)/(HC-LC)*100
% Control=(sample/HC)*100
% Control min=(sample-LC)/(HC-LC)*100

Chain of Myeloid Cell Leukemia 1(Mcl-1) (Q07820 whole entry, the tested form may be a part): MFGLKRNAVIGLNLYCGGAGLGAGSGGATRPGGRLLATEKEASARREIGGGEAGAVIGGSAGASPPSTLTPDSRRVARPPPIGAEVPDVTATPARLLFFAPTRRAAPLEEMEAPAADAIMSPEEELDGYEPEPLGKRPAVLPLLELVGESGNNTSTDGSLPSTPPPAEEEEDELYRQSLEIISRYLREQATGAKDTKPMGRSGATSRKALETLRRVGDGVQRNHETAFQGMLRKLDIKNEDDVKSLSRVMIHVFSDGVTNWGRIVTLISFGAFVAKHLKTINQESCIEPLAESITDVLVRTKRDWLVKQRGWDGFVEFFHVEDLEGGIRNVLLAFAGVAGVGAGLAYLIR

Turning to `C[C@@H]1[C@@H](C)C/C=C(\F)[C@H](C(=O)N(C)CCOc2cncc(F)c2)N2CCC[C@H]2CN2C[C@@]3(CCCc4cc(Cl)ccc43)COc3ccc(cc32)C(=O)NS1(=O)=O` [Compound 48], the inhibition constant Ki (commonly a measure of affinity in units of concentration, obtained from inhibition or displacement) in assay [1] amounted to 0.155 nM. Besides, the half-maximal activity concentration (AC50) (commonly the concentration at which the activity in the assay is half-maximal) in assay [2] (Homo sapiens, MOLP-8, 2 h) came to 112 nM.
For the compound `CO[C@@H]1CCN(C(=O)[C@H]2/C(F)=C/C[C@H](C)[C@@H](C)S(=O)(=O)NC(=O)c3ccc4c(c3)N(C[C@@H]3CCCN32)C[C@@]2(CCCc3cc(Cl)ccc32)CO4)C1` [Compound 52], the Ki in assay [1] was 0.036 nM. In addition, in assay [2] (Homo sapiens, MOLP-8, 2 h), the AC50 worked out at 90.5 nM.
Turning to `C[C@@H]1[C@@H](C)C/C=C(\F)[C@H](C(=O)N2CCCC3(CCOC3)C2)N2CCC[C@H]2CN2C[C@@]3(CCCc4cc(Cl)ccc43)COc3ccc(cc32)C(=O)NS1(=O)=O` (single isomer, unassigned) [Compound 14], in assay [1], the inhibition constant Ki is 0.126 nM. Also, the AC50 in assay [2] (Homo sapiens, MOLP-8, 2 h) is 266 nM.
For `CC(C)N(C)C(=O)[C@H]1/C(F)=C/C[C@H](C)[C@@H](C)S(=O)(=O)NC(=O)c2ccc3c(c2)N(C[C@@H]2CCCN21)C[C@@]1(CCCc2cc(Cl)ccc21)CO3` [Compound 31], in that order: 0.105 nM and 238 nM.
In the same order, the values of `C[C@@H]1[C@@H](C)C/C=C(\F)[C@H](C(=O)N2CCOCC2)N2CC[C@H]2CN2C[C@@]3(CCCc4cc(Cl)ccc43)COc3ccc(cc32)C(=O)NS1(=O)=O` [Compound 7] are 0.223 nM and 346 nM.
In the same order, the values of `C[C@@H]1[C@@H](C)C/C=C(\F)[C@H](C(=O)N(C)CCN2CC(F)(F)C2)N2CCC[C@H]2CN2C[C@@]3(CCCc4cc(Cl)ccc43)COc3ccc(cc32)C(=O)NS1(=O)=O` [Compound 87] are 0.071 nM and 84.8 nM.
In the case of `C[C@@H]1[C@@H](C)C/C=C(\F)[C@H](C(=O)N(C)CCOc2cncnc2)N2CCC[C@H]2CN2C[C@@]3(CCCc4cc(Cl)ccc43)COc3ccc(cc32)C(=O)NS1(=O)=O` [Compound 41], the inhibition constant Ki in assay [1] is 0.034 nM. The concentration at half-maximal activity (AC50) in assay [2] (Homo sapiens, MOLP-8, 2 h) turned out to be 99.1 nM.
For `COCCN(CC1CCOCC1)C(=O)[C@H]1/C(F)=C/C[C@H](C)[C@@H](C)S(=O)(=O)NC(=O)c2ccc3c(c2)N(C[C@@H]2CCCN21)C[C@@]1(CCCc2cc(Cl)ccc21)CO3` [Compound 59], in that order: 0.06 nM and 33.4 nM.
`CC1CN(CCN(C)C(=O)[C@H]2/C(F)=C/C[C@H](C)[C@@H](C)S(=O)(=O)NC(=O)c3ccc4c(c3)N(C[C@@H]3CCCN32)C[C@@]2(CCCc3cc(Cl)ccc32)CO4)CC(C)O1` (mixture of isomers) [Compound 45]: the inhibitory constant (Ki) in assay [1] turned out to be 0.113 nM. In addition, the concentration at half-maximal activity (AC50) in assay [2] came out at 113 nM.
In the case of `C[C@@H]1[C@@H](C)C/C=C(\F)[C@H](C(=O)N2CCOC3(CCC3)C2)N2CCC[C@H]2CN2C[C@@]3(CCCc4cc(Cl)ccc43)COc3ccc(cc32)C(=O)NS1(=O)=O` [Compound 26], the inhibitory constant (Ki) in assay [1] amounted to 0.115 nM. In addition, the AC50 in assay [2] (Homo sapiens, MOLP-8, 2 h) was 153 nM.
In the same order, the values of `COCCCN(CCOC)C(=O)[C@H]1/C(F)=C/C[C@H](C)[C@@H](C)S(=O)(=O)NC(=O)c2ccc3c(c2)N(C[C@@H]2CCCN21)C[C@@]1(CCCc2cc(Cl)ccc21)CO3` [Compound 70] are 0.028 nM and 41.9 nM.
For `C[C@@H]1[C@@H](C)C/C=C(\F)[C@H](C(=O)N2CCN(C)[C@@H](C)C2)N2CCC[C@H]2CN2C[C@@]3(CCCc4cc(Cl)ccc43)COc3ccc(cc32)C(=O)NS1(=O)=O` [Compound 24], in that order: 0.068 nM and 151 nM.
For `C[C@@H]1[C@@H](C)C/C=C(\F)[C@H](C(=O)N(C)CC2CCCCO2)N2CCC[C@H]2CN2C[C@@]3(CCCc4cc(Cl)ccc43)COc3ccc(cc32)C(=O)NS1(=O)=O` (single isomer, unassigned) [Compound 71], in that order: 0.066 nM and 94.2 nM.
`C[C@@H]1[C@@H](C)C/C=C(\F)[C@H](C(=O)N(C)Cc2ccn(C)n2)N2CCC[C@H]2CN2C[C@@]3(CCCc4cc(Cl)ccc43)COc3ccc(cc32)C(=O)NS1(=O)=O` [Compound 40]: in assay [1], the Ki came to 0.623 nM. In addition, the AC50 in assay [2] (Homo sapiens, MOLP-8, 2 h) came out at 138 nM.
In the same order, the values of `C[C@@H]1[C@@H](C)C/C=C(\F)[C@H](C(=O)N(C)CCN2CCOCC2C(F)(F)F)N2CCC[C@H]2CN2C[C@@]3(CCCc4cc(Cl)ccc43)COc3ccc(cc32)C(=O)NS1(=O)=O` (mixture of isomers) [Compound 50] are 0.146 nM and 175 nM.
For `C[C@@H]1[C@@H](C)C/C=C(\F)[C@H](C(=O)N(C)CCCN2CCOCC2)N2CCC[C@H]2CN2C[C@@]3(CCCc4cc(Cl)ccc43)COc3ccc(cc32)C(=O)NS1(=O)=O` [Compound 5], in that order: 0.026 nM and 111 nM.
As to `COCCCN(C)C(=O)[C@H]1/C(F)=C/C[C@H](C)[C@@H](C)S(=O)(=O)NC(=O)c2ccc3c(c2)N(C[C@@H]2CCCN21)C[C@@]1(CCCc2cc(Cl)ccc21)CO3` (single isomer, unassigned) [Compound 51], the inhibition constant Ki in assay [1] came to 0.04 nM. Besides, the concentration at half-maximal activity (AC50) in assay [2] (Homo sapiens, MOLP-8, 2 h) was found to be 78.3 nM.
In the case of `C[C@@H]1[C@@H](C)C/C=C(\F)[C@H](C(=O)N(C)C)N2CCC[C@H]2CN2C[C@@]3(CCCc4cc(Cl)ccc43)COc3ccc(cc32)C(=O)NS1(=O)=O` [Compound 3], in assay [1], the inhibition constant Ki is 0.129 nM. Further, the AC50 in assay [2] (Homo sapiens, MOLP-8, 2 h) was 99.2 nM.
For `C[C@@H]1[C@@H](C)C/C=C(\F)[C@H](C(=O)N(C)CCN2CCCOCC2)N2CCC[C@H]2CN2C[C@@]3(CCCc4cc(Cl)ccc43)COc3ccc(cc32)C(=O)NS1(=O)=O` [Compound 75], in that order: 0.022 nM and 83 nM.
In the same order, the values of `C[C@@H]1[C@@H](C)C/C=C(\F)[C@H](C(=O)N(C)CC(F)(F)F)N2CCC[C@H]2CN2C[C@@]3(CCCc4cc(Cl)ccc43)COc3ccc(cc32)C(=O)NS1(=O)=O` [Compound 30] are 0.379 nM and 351 nM.
